System: P12-Ichikawa
Test: cell viability relative to DMSO control; higher = less cytotoxic
Conditions: 48 h
Summary of the method: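 Leukemia cells (NOMO1 or SEM, 500 cells/well; P12-Ichikawa, 1000 cells/well) were seeded in 5 μl in 1536-well plates after at least four passages of adaptation to each medium. They received library compounds in DMSO by pin dosing, 11 threefold points from 47 μM to 0.79 nM. Luminescence with CellTiter-Glo One was read after 48 h at 37°C. Viability is stated per plate relative to DMSO wells, with cell-free wells as background.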

[1] = HPLM + 10% dialyzed FBS, 0.000781 µM
[2] = HPLM + 10% dialyzed FBS, 0.00234 µM
[3] = HPLM + 10% dialyzed FBS, 0.00702 µM
[4] = HPLM + 10% dialyzed FBS, 0.0211 µM
[5] = HPLM + 10% dialyzed FBS, 0.0632 µM
[6] = HPLM + 10% dialyzed FBS, 0.19 µM
[7] = HPLM + 10% dialyzed FBS, 0.569 µM
[8] = HPLM + 10% dialyzed FBS, 1.71 µM
[9] = HPLM + 10% dialyzed FBS, 5.12 µM
[10] = HPLM + 10% dialyzed FBS, 15.4 µM
[11] = HPLM + 10% dialyzed FBS, 46.1 µM
[12] = RPMI 5 mM glucose + 10% FBS, 0.000781 µM
[13] = RPMI 5 mM glucose + 10% FBS, 0.00234 µM
[14] = RPMI 5 mM glucose + 10% FBS, 0.00702 µM
[15] = RPMI 5 mM glucose + 10% FBS, 0.0211 µM
[16] = RPMI 5 mM glucose + 10% FBS, 0.0632 µM
[17] = RPMI 5 mM glucose + 10% FBS, 0.19 µM
[18] = RPMI 5 mM glucose + 10% FBS, 0.569 µM
[19] = RPMI 5 mM glucose + 10% FBS, 1.71 µM
[20] = RPMI 5 mM glucose + 10% FBS, 5.12 µM
[21] = RPMI 5 mM glucose + 10% FBS, 15.4 µM
[22] = RPMI 5 mM glucose + 10% FBS, 46.1 µM
[23] = RPMI 5 mM glucose + 10% dialyzed FBS, 0.000781 µM
[24] = RPMI 5 mM glucose + 10% dialyzed FBS, 0.00234 µM
[25] = RPMI 5 mM glucose + 10% dialyzed FBS, 0.00702 µM
[26] = RPMI 5 mM glucose + 10% dialyzed FBS, 0.0211 µM
[27] = RPMI 5 mM glucose + 10% dialyzed FBS, 0.0632 µM
[28] = RPMI 5 mM glucose + 10% dialyzed FBS, 0.19 µM
[29] = RPMI 5 mM glucose + 10% dialyzed FBS, 0.569 µM
[30] = RPMI 5 mM glucose + 10% dialyzed FBS, 1.71 µM
[31] = RPMI 5 mM glucose + 10% dialyzed FBS, 5.12 µM
[32] = RPMI 5 mM glucose + 10% dialyzed FBS, 15.4 µM
[33] = RPMI 5 mM glucose + 10% dialyzed FBS, 46.1 µM

Structure (SMILES)	cell viability [1] [%]	cell viability [2] [%]	cell viability [3] [%]	cell viability [4] [%]	cell viability [5] [%]	cell viability [6] [%]	cell viability [7] [%]	cell viability [8] [%]	cell viability [9] [%]	cell viability [10] [%]	cell viability [11] [%]	cell viability [12] [%]	cell viability [13] [%]	cell viability [14] [%]	cell viability [15] [%]	cell viability [16] [%]	cell viability [17] [%]	cell viability [18] [%]	cell viability [19] [%]	cell viability [20] [%]	cell viability [21] [%]	cell viability [22] [%]	cell viability [23] [%]	cell viability [24] [%]	cell viability [25] [%]	cell viability [26] [%]	cell viability [27] [%]	cell viability [28] [%]	cell viability [29] [%]	cell viability [30] [%]	cell viability [31] [%]	cell viability [32] [%]	cell viability [33] [%]
CO[C@H]1CCC(O[C@H]2C[C@H]([C@]3(C)CC[C@]4(C[C@H](O)[C@@H](C)[C@@H]([C@@H](C)/C=C(\C)C(=O)[C@H](C)C[C@H](C)C(=O)[O-])O4)O3)O[C@]3(O[C@@H]([C@H]4O[C@@](O)(CO)[C@H](C)C[C@@H]4C)C[C@@H]3C)[C@@H]2C)O[C@@H]1C (stereo partly specified)	120	124	119	118	111	106	87.3	80.2	48.8	35.7	21.5	124	113	106	113	111	103	99.7	73.1	44.2	28.9	22.7	118	120	109	119	120	119	108	88.8	39.7	25.3	27.1
CCCCCNC(=N)N/N=C/c1c[nH]c2ccc(OC)cc12	122	119	121	130	126	139	128	137	121	59.8	20.2	–	–	–	–	–	–	–	–	–	–	–	–	–	–	–	–	–	–	–	–	–	–
Clc2cccc(Cl)c2\N=C1/NCCN1	109	115	71	123	116	123	120	120	116	122	121	109	120	73.8	121	127	130	137	126	135	126	123	95.8	115	80.2	113	115	121	120	120	112	124	124
N[S+](=O)([O-])c1ccc(Nc2nc(OCC3CCCCC3)c3[nH]cnc3n2)cc1	114	115	117	118	48	24.2	13.1	15.9	20.3	52.2	73	117	118	115	120	103	109	32.3	14.7	15.2	19.4	66.2	120	123	111	120	109	108	25.2	20.7	22.5	36.5	59.5
C[C@]1(O)CC(C1)C2=NC(=C3[N]2C=CN=C3N)C4=CC5=C(C=C4)C=CC(=N5)C6=CC=CC=C6 (stereo unspecified)	94	97.3	104	103	107	97.7	105	97.4	75.5	4.9	1.89	102	101	103	101	93.5	89.6	96.4	59.5	50.3	3.05	1.49	96.1	96.5	94.5	98.2	101	94.5	99	71	58.2	4.69	1.85
CC[C@H]1OC(=O)[C@H](C)[C@@H](O[C@H]2C[C@@](C)(OC)[C@@H](O)[C@H](C)O2)[C@H](C)[C@@H](O[C@@H]2O[C@H](C)C[C@H](N(C)C)[C@H]2O)[C@](C)(OC)C[C@@H](C)C(=O)[C@H](C)[C@@H](O)[C@]1(C)O	109	102	98	98.7	103	96.7	95.8	93.2	91.6	93.5	82.1	94.3	103	98.6	88.4	96.3	98.5	90.8	89.8	86	84.2	89.6	93.2	98.5	96.3	88	94.8	94.3	90.5	85.6	90.8	94.2	81.2
CCC(CCCC)COC(=O)C(\C#N)=C(\c1ccccc1)c2ccccc2 (stereo unspecified)	95.6	100	102	99.3	106	108	112	107	113	107	99.3	89.8	95.7	95.2	96.3	110	104	106	99.2	95.2	102	94.5	87.1	84.2	97.6	98.5	98.8	97.2	101	99.5	97.3	99.1	95.9
O=C1NC(=O)/C(=C/c2ccc3nccnc3c2)S1	111	111	117	107	115	122	102	116	103	97.5	99.7	110	112	119	114	115	109	98.7	106	95.2	95.9	91.4	110	111	126	123	114	113	115	102	96.2	104	97.1
Cc1cn2cc(C(=O)N(C)CCO)cc(N[C@@H]3CCOc4cccc(C)c43)c2n1	107	106	109	112	111	119	118	115	119	110	117	105	119	107	113	118	117	115	123	115	105	114	106	109	105	116	118	114	118	115	110	118	109
CN1C(=O)/C(=C(NC2=CC=C(I)C=C2F)\C3=C1\N=C/N(C[C@@H](O)CO)C3=O)F	86.5	82.2	87.2	89.6	81.1	82.8	75.4	80.3	74.8	71.3	62.9	78.2	74.9	83.6	73.8	71.6	71.3	72.1	70.4	68	68.9	40.5	81.1	82.2	85.6	86.7	77.7	81.9	76.2	80.1	78	65.2	39.2
CN1C(=O)c2sccc2N(C)c2nc(Nc3ccc([S+](N)(=O)[O-])cc3)ncc21	91.5	94	95.1	102	101	96.2	92.6	75.7	11.4	5.78	5.18	96.2	96	98.3	93.4	99.7	99.7	90	73.6	17.2	13.1	6.79	98.2	103	104	99.4	98.2	88.9	95.8	64.9	23.4	14.5	9.34
COc1cc(C(=O)NC2CCN(C)CC2)ccc1Nc1ncc2c(n1)N(C1CCCC1)CCC(=O)N2C(C)C	104	102	103	110	109	110	85	109	79.2	26.3	4.5	107	103	95.1	112	108	116	89.6	114	73.4	42.7	5.67	98.1	104	111	110	111	106	92.3	107	71.2	54.1	6
Cc1nc(-c2ccc(OCC(C)C)c(C#N)c2)sc1C(=O)O	114	124	122	117	119	117	112	116	119	106	92.7	–	–	–	–	–	–	–	–	–	–	–	–	–	–	–	–	–	–	–	–	–	–
COc1ccc(F)c(F)c1C(=O)c1cnc(NC2CCN([S+](C)(=O)[O-])CC2)nc1N	111	116	114	115	118	112	87.4	77.6	86	67.6	3.92	113	114	126	116	116	117	78.3	72.2	63.7	43.2	4.54	114	121	116	127	116	113	86.8	78.2	58.4	45.9	5.54
OC[C@H]1O[C@H](C[C@@H]1O)N2/C=C(C(=O)NC2=O)/C(F)(F)F	120	116	119	110	117	98	75.9	52.9	17.4	12.5	6.49	126	113	118	114	123	121	112	107	38.6	15.7	8.41	107	114	114	113	105	107	89.6	93.3	23.1	16.8	11.1
